According to patent US7067551B2, “Deacetylase inhibitors” (Novartis AG, priority 2000, dated 2006):

Key:
A549 = experiment: Annexin V / propidium iodide staining (apoptosis), fluorescence microscopy; assay type: cell-based, human; conditions: for cells exhibiting cell surface staining with annexin V: A549, 24 hour exposure; for cells staining with annexin V and/or propidium iodide: A549, 48 hour treatment
Protocol: (§1) Annexin V binding was used as a marker for the early stages of apoptosis. A549,HCT116 and Normal Dermal Human Fibroblasts (NDHF) cells are treated separately with four compounds (CMD1, CMD2, CMD3 and CMD4) for 24 or 48 hours, stained with annexin V and compared to cells treated similarly with vehicle (DMSO). Cells are examined by fluorescence microscopy. […] Viability is assessed by the counterstain, propidium iodide. Cells detected by red fluorescence are not viable.

HCT116 = experiment: as above; assay type: cell-based, human; conditions: for cells exhibiting cell surface staining with annexin V: HCT116, 24 hour exposure; for cells staining with annexin V and/or propidium iodide: HCT116, 48 hour treatment
Protocol: as §1

[1] = system: Normal Dermal Human Fibroblasts (NDHF); experiment: as above; assay type: cell-based; conditions: NDHF cells
Protocol: as §1

[2] = system: H1299 (human lung carcinoma cell); experiment: Monolayer cell growth inhibition, MTS assay; assay type: cell-based; conditions: NCI-H1299, H1299, 72 hours compound treatment, lactate salts
Text: (§2) Cell lines H1299 (human lung carcinoma cell) and HCT116 (colon tumor cell) are obtained from the American Type Culture Collection, Rockville, Md. The cell lines are free of Mycoplasma contamination (Rapid Detection System by Gen-Probe, Inc., San Diego, Calif.) and viral contamination (MAP testing by MA BioServices, Inc., Rockville, Md.). The cell lines are propagated and expanded in RPMI 1640 medium containing 10% heat-inactivated FBS (Life Technologies, Grand Island, N.Y.). Cell expansions for implantation are performed in cell factories (NUNC, purchased from Fisher Scientific, Springfield, N.J.). Cells are harvested at 50–90% confluency, washed once with HBSS (Hank's Balanced Salt Solution) containing 10% FBS, and suspended in 100% HBSS.
(§3) Cell proliferation is measured with a commercial MTS kit (Promega, Madision, Wis.) assay using an adaptation of published procedures, for example, that disclosed in Feasibility of drug screening with panels of human tumor cell lines using a microculture tetrazolium assay, Alley M C, et al., Cancer Res. 1988; 48:589–601. Cells are plated in 96-well tissue culture dishes, with top and bottom rows left empty. H1299 and HCT116 cells are suspended in complete media at a density of 5.3×10^3 and 3.6×10^3 cell/mL, respectively, and 190 μl are added per well. Each cell line is added to one half of the plate. Complete medium (200 μL) is added to the top and bottom rows. Twenty-four hours later, 10 μl of MTS solution is added to one of the plates to determine the activity at the time of compound addition (T0). The plate is incubated at 37° C. for 4 hours and the OD490 is measured on a Molecular Devices Thermomax at 490 nm using the Softmax program. The T0 plate serves as a reference for initial activity at the beginning of the experiment.
(§4) Five serial dilutions (1:4) of each compound are made in a 96-deep well plate with the highest concentrations on the edge of plate. Two cell lines are tested with two compounds per plate.0 Ten microliters of each of the five dilutions are added in triplicate and complete medium alone is added to columns six and seven. The plates are incubated at 37° C. for 72 hours. The MTS solution is added (as for the T0 plate) and read four hours later.
(§5) In order to analyze the data, the average background value (media alone) is subtracted from each experimental well; the triplicate values are averaged for each compound dilution. The following formulas are used to calculate percent growth.
Lactate salts of N-hydroxy-3-[4-[[[2-(1H-indol-3-yl)-ethyl]-amino]methyl]phenyl]-2E-2-propenamide (CMD1), N-hydroxy-3-[4-[[(2-hydroxyethyl)[2-(1H-indol-3-yl)ethyl]-amino]methyl]phenyl]-2E-2-propenamide (CMD2), N-hydroxy-3-[4-[[[2-(5-methoxy-1H-indol-3-yl)-ethyl]-amino]methyl]pheny]-2E-2-propenamide (CMD3), N-hydroxy-3-[4-[[[2-(5-fluoro-1H-indol-3-yl)-ethyl]-amino]methyl]phenyl]-2E-2-propenamide (CMD4), N-hydroxy-3-[4-[[[2-(benzofur-3-yl)-ethyl]-amino]methyl]phenyl]-2E-2-propenamide (CMD5) having a purity of higher than 95% are dissolved in pure dimethylsulfoxide (DMSO) to create a stock solution. The stock solution is diluted with 5% dextrose injection, USP, just prior to dosing.

[3] = system: HDA partially purified from H1299 cells; experiment: HDA enzyme assay, 3H-acetate release from acetylated histone H4 peptide; assay type: biochemical, human; conditions: HDA partially purified from H1299, 37° C. 1.5 hr
Protocol: HDA is partially purified from H1299, human non-small cell lung carcinoma cells (obtained from American Type Culture Collection, 12301 Parklawn Drive, Rockville, Md. 20852, USA). Cells are grown to 70–80% confluence in RPMI media in the presence of 10% FCS, harvested and lysed by sonication. The lysate is centrifuged at 23,420 g for 10–15 min, the supernatant is applied to a Hiload 26/10 High performance Q-sepharose column (Amersham Pharmacia Biotech), and equilibrated with a buffer containing 20 mM Tris pH8.0, 1 mM EDTA, 10 mM NH4Cl2, 1 mM μ-Mercaptoethanol, 5% glycerol, 2 μg/mL aprotinin, 1 μg/mL leupeptin, and 400 mM PMSF. Proteins are eluted in 4 mL aliquots with a linear gradient from 0–500 mM NaCl in the above buffer at a flow rate of 2.5 mL/min. Each preparation of partially purified HDA enzyme is titrated to determine the optimal amount needed to obtain a signal to noise ratio of at least 5 to 1. […] The compounds are serially diluted in DMSO to generate stocks at 20-fold of the assay concentrations. Final concentrations of compounds in the assay are 10 μM, 2 μM, 400 nM, 80 nM, and 16 nM with the final percentage of DMSO in each enzyme reaction equaling 0.1%. Each concentration of compound is assayed in duplicate. The substrate used in the reaction is a peptide of amino acid sequence, [sequence], corresponding to the twenty-four N-terminal amino acids of human histone H4, biotinylated at the N-terminus and penta-acetylated, at each lysine residue with ^3H-acetate. To initiate the reaction, the substrate is diluted in 10 μL of Buffer A (100 mM Tris pH 8.0, 2 mM EDTA), added to the enzyme mixture and collected at the bottom of the deep well plate by centrifugation for 5 minutes at 1500 rpm. Following centrifugation, the mixture is incubated at 37° C. for 1.5 hr. The reaction is stopped by the addition of 20 μL of the Stop Buffer (0.5N HCl, 0.08M Acetic Acid). At this point, the assay proceeds to the robotic extraction phase or is frozen for several days at −80° C.
The extraction of enzymatically cleaved ^3H-acetate groups from the reaction mixture is achieved with the solvent TBME (t-butyl methyl ether) using the Tomtec Quadra 96 workstation. A program is written to add 200 μL of TBME to a 96 “deep well” plate. The workstation is programmed to aspirate 50 μL of air followed by 200 μL of TBME and finally another 25 μL of air, which is dispensed into the each well of the plate. The contents of the deep well were mixed thoroughly by pipetting 160 μL up and down 10 times. Before addition of TBME to the reaction mixture, it is necessary to “pre-wet” the pipette tips with TBME to prevent the solvent from dripping during the transfer to the deep well plate. The organic and aqueous phases in the deep well are separated by centrifugation at 1500 rpm for 5 min. Opti-Phase Supermix liquid scintillation cocktail (200 μL) (Wallac) is added to each well of the 96-well Trilux plate (Wallac). […] The Trilux plate is covered with clear film and read on a 1450 MicroBeta Trilux liquid scintillation and luminescence counter (Wallac) with a color/chemical quench and dpm correction.
In order to determine the IC50 values, the data are analyzed on a spreadsheet. The analysis requires a correction for the background luminescence that is accomplished by subtracting the dpm values of wells without ^3H substrate from the experimental wells. […]

[4] = system: HCT116 (colon tumor cell); experiment: Monolayer cell growth inhibition, MTS assay; assay type: cell-based; conditions: Homo sapiens, HCT-116, HCT116, 72 hours compound treatment, lactate salts
Text: as §2, §3, §4, §5
The stock solution is diluted with 5% dextrose injection, USP, just prior to dosing.

[5] = Body weight change of A549 tumor-bearing athymic mice; assay type: in vivo; conditions: ± SEM
Protocol: (§6) Outbred athymic (nu/nu) female mice (“Hsd:Athymic Nude-nu” from Harlan Sprague Dawley, Indianapolis, Ind.) are anesthetized with Metofane (Mallinckrodt Veterinary, Inc., Mundelein, Ill.), and 100 μL of the cell suspension containing 1×10^7 cells is injected subcutaneously into the right axillary (lateral) region of each animal. Tumors are allowed to grow for about 20 days until a volume of ˜100 mm^3 is achieved. At this point, mice bearing tumors with acceptable morphology and size are sorted into groups of eight for the study. The sorting process produces groups balanced with respect to mean and range of tumor size. Antitumor activity is expressed as % T/C, comparing differences in tumor volumes for treatment group (T) to vehicle control group (C).
(§7) CMD1 is administered intravenously, once daily 5×/week for three weeks, at doses of 10, 25, 50, or 100 mg/kg. The final DMSO concentration is 10%. Each test group has eight mice. Tumors are measured, and individual animal body weights recorded.
(§8) Example B3 repeated except CMD2 is used.

[6] = system: A549 non-small cell lung human tumor cell line; experiment: A549 tumor xenograft in athymic mice, antitumor activity; assay type: in vivo; conditions: for Δ MEAN TUMOR VOLUME: ± SEM
Protocol: as §2, with “The A549 non-small cell” for “Cell lines H1299 (human”, “human” for “carcinoma cell) and HCT116 (colon”, “cell line is purchased” for “cell) are obtained”, “line is” for “lines are”, “HBSS” for “HBSS (Hank's Balanced Salt Solution)”
as §6, §7, §8

[7] = system: HCT116 colon tumor cell line; experiment: HCT116 tumor xenograft in athymic mice, antitumor activity; assay type: in vivo; conditions: 34th day; for Δ MEAN TUMOR VOLUME: ± SEM
Protocol: as §2, with “The A549 non-small cell” for “Cell lines H1299 (human”, “human” for “carcinoma cell) and HCT116 (colon”, “cell line is purchased” for “cell) are obtained”, “line is” for “lines are”, “HBSS” for “HBSS (Hank's Balanced Salt Solution)”
as §6, §7
(§9) Example B3 is repeated except the HCT116 colon tumor cell line is used in place of the A549 cell line. The HCT116 cell line is also obtained from American Type Culture Collection, Rockville, Md., and the cell line is free of Mycoplasma contamination and viral contamination.
(§10) Example B4 is repeated except the HCT116 colon tumor cell line is used in place of the A549 cell line. The HCT116 is also obtained from American Type Culture Collection, Rockville, Md., and the cell line is free of Mycoplasma contamination and viral contamination.

[8] = Body weight change of HCT116 tumor-bearing athymic mice; assay type: in vivo; conditions: 34th day, ± SEM
Protocol: as §6, §7, §9, §10

[9] = system: HCT116 colon tumor cell line; experiment: HCT116 tumor xenograft in athymic mice, antitumor activity; assay type: in vivo; conditions: Table B5, HCT116, 50 mg/kg i.v., 34th day, seven mice
[10] = Table B4, A549, 25 mg/kg, Example B3 repeated
[11] = Table B4, A549, 50 mg/kg, Example B3 repeated
[12] = A549, 10 mg/kg i.v. once daily 5×/week for three weeks, 41st day
[13] = A549, 25 mg/kg i.v. once daily 5×/week for three weeks, 41st day
[14] = A549, 50 mg/kg i.v. once daily 5×/week for three weeks, 41st day
[15] = A549, 100 mg/kg i.v. once daily 5×/week for three weeks, 41st day
[16] = Table B5, HCT116, 100 mg/kg i.v.

SMILES: O=C(/C=C/c1ccc(CNCCc2c[nH]c3ccc(F)cc23)cc1)NO [CMD4, N-hydroxy-3-[4-[[[2-(5-fluoro-1H-indol-3-yl)-ethyl]-amino]methyl]phenyl]-2E-2-propenamide]
- cells exhibiting cell surface staining with annexin V (A549): A small percentage
- cells staining with annexin V and/or propidium iodide (A549): the majority
- cells exhibiting cell surface staining with annexin V (HCT116): the majority
- cells staining with annexin V and/or propidium iodide (HCT116): the majority
- annexin V staining ([1]; 24 hour exposure): do not show noticeable annexin V staining
- IC50 [2]: 280 nM
- IC50 [3]: 14 nM
- IC50 [4]: 30 nM

SMILES: Nc1ccccc1NC(=O)c1ccc(CNC(=O)OCc2cccnc2)cc1 [CMDC, reference compound]
- IC50 [2]: 6800 nM

SMILES: O=C(/C=C/c1ccc(CN(CCO)CCc2c[nH]c3ccccc23)cc1)NO [CMD2, N-hydroxy-3-[4-[[(2-hydroxyethyl)[2-(1H-indol-3-yl)ethyl]-amino]methyl]phenyl]-2E-2-propenamide]
- cells exhibiting cell surface staining with annexin V (A549): A small percentage
- cells staining with annexin V and/or propidium iodide (A549): the majority
- cells exhibiting cell surface staining with annexin V (HCT116): the majority
- cells staining with annexin V and/or propidium iodide (HCT116): the majority
- Δ % BODY WEIGHT [5, 10]: −4.2 ± 2.5%
- Δ % BODY WEIGHT [5, 11]: −2.9 ± 1.5%
- annexin V staining ([1]; 24 hour exposure): do not show noticeable annexin V staining
- IC50 [2]: 150 nM
- % T/C [6, 10]: 27%
- Δ MEAN TUMOR VOLUME [6, 10]: 37 ± 16 mm^3
- % T/C [6, 11]: 21%
- Δ MEAN TUMOR VOLUME [6, 11]: 29 ± 15 mm^3
- % T/C ([7]; Table B6, HCT116, 10 mg/kg): 56%
- Δ MEAN TUMOR VOLUME ([7]; Table B6, HCT116, 10 mg/kg): 422 ± 75 mm^3
- % T/C ([7]; Table B6, HCT116, 25 mg/kg): 40%
- Δ MEAN TUMOR VOLUME ([7]; Table B6, HCT116, 25 mg/kg): 305 ± 47 mm^3
- % T/C ([7]; Table B6, HCT116, 50 mg/kg): 13%
- Δ MEAN TUMOR VOLUME ([7]; Table B6, HCT116, 50 mg/kg): 97 ± 30 mm^3
- % T/C ([7]; Table B6, HCT116, 100 mg/kg): 17%
- Δ MEAN TUMOR VOLUME ([7]; Table B6, HCT116, 100 mg/kg): 132 ± 30 mm^3
- Δ % BODY WEIGHT ([8]; Table B6, HCT116, 10 mg/kg): −10.2 ± 0.5%
- Δ % BODY WEIGHT ([8]; Table B6, HCT116, 25 mg/kg): −7.0 ± 0.2%
- Δ % BODY WEIGHT ([8]; Table B6, HCT116, 50 mg/kg): −7.3 ± 0.3%
- Δ % BODY WEIGHT ([8]; Table B6, HCT116, 100 mg/kg): −9.4 ± 0.4%
- IC50 [3]: 63 nM
- IC50 [4]: 10 nM

SMILES: COc1ccc2[nH]cc(CCNCc3ccc(/C=C/C(=O)NO)cc3)c2c1 [CMD3, N-hydroxy-3-[4-[[[2-(5-methoxy-1H-indol-3-yl)-ethyl]-amino]methyl]pheny]-2E-2-propenamide]
- cells exhibiting cell surface staining with annexin V (A549): A small percentage
- cells staining with annexin V and/or propidium iodide (A549): the majority
- cells exhibiting cell surface staining with annexin V (HCT116): the majority
- cells staining with annexin V and/or propidium iodide (HCT116): the majority
- annexin V staining ([1]; 24 hour exposure): do not show noticeable annexin V staining
- annexin V staining ([1]; 48 hour): limited annexin V staining
- IC50 [2]: 580 nM
- IC50 [3]: 14 nM
- IC50 [4]: 30 nM

SMILES: O=C(/C=C/c1ccc(CNCCc2coc3ccccc23)cc1)NO [CMD5, N-hydroxy-3-[4-[[[2-(benzofur-3-yl)-ethyl]-amino]methyl]phenyl]-2E-2-propenamide]
- IC50 [2]: 180 nM
- IC50 [3]: 16 nM
- IC50 [4]: 30 nM

SMILES: O=C(/C=C/c1ccc(CNCCc2c[nH]c3ccccc23)cc1)NO [CMD1, N-hydroxy-3-[4-[[[2-(1H-indol-3-yl)-ethyl]-amino]methyl]phenyl]-2E-2-propenamide]
- cells exhibiting cell surface staining with annexin V (A549): A small percentage
- cells staining with annexin V and/or propidium iodide (A549): the majority
- cells exhibiting cell surface staining with annexin V (HCT116): the majority
- cells staining with annexin V and/or propidium iodide (HCT116): the majority
- Δ % BODY WEIGHT [5, 12]: +1.3 ± 0.3%
- Δ % BODY WEIGHT [5, 13]: −0.9 ± 0.3%
- Δ % BODY WEIGHT [5, 14]: −0.4 ± 0.3%
- Δ % BODY WEIGHT [5, 15]: +0.4 ± 0.3%
- annexin V staining ([1]; 24 hour exposure): do not show noticeable annexin V staining
- IC50 [2]: 400 nM
- % T/C [6, 12]: 32%
- Δ MEAN TUMOR VOLUME [6, 12]: 121 ± 27 mm^3
- % T/C [6, 13]: 20%
- Δ MEAN TUMOR VOLUME [6, 13]: 77 ± 32 mm^3
- % T/C [6, 14]: 15%
- Δ MEAN TUMOR VOLUME [6, 14]: 57 ± 10 mm^3
- % T/C [6, 15]: 7%
- Δ MEAN TUMOR VOLUME [6, 15]: 28 ± 25 mm^3
- % T/C [7, 16]: 18%
- Δ MEAN TUMOR VOLUME [7, 16]: 140 ± 38 mm^3
- Δ % BODY WEIGHT ([8]; Table B5, HCT116, 50 mg/kg i.v., seven mice): −7.4 ± 0.8%
- Δ % BODY WEIGHT [8, 16]: −3.2 ± 0.4%
- % T/C [9]: 25%
- Δ MEAN TUMOR VOLUME ([9]; ± SEM): 186 ± 40 mm^3
- IC50 [3]: 32 nM
- IC50 [4]: 30 nM
